Where a name gives a salt, the structure may show the parent alone.
System: voltage operated calcium channels (VOC)
Assay: inhibition of depolarization-induced 45Ca uptake into brain synaptosomes (crude P2 fraction)
Assay type: biochemical, male Wistar rat
Settings: rat cerebral cortex synaptosomes (P2), KCl-depolarized samples, 15 s uptake at 37° C., pH 7.4; triplicate; from dose response curves
From the text: The pharmacological properties of the compounds of the invention can be illustrated by determining their capability to inhibit calcium uptake into brain synaptosomes.
Depolarization of neuronal membranes leads to an opening of socalled `voltage operated calcium channels` (VOC) in the membranes which allows a massive influx of calcium from the extracellular space. A crude synaptosomal preparation (socalled P2 fraction) contains small vesicles surrounded by neuronal membrane and it is possible in such a preparation to study a depolarization-induced opening of VOC.
A male Wistar rat is decapitated and the cerebral cortex removed and homogenized in 10 ml of ice-cold 0.32 M sucrose using a glass homogenizer with a teflon pestle. All subsequent steps for isolation of synaptosomes are done at 0°-4° C. The homogenate is centrifuged at 1000×g for 10 min and the resulting supernatant is re-centrifuged at 18000×g for 20 min. This pellet (P2) is resuspended in 0.32 M sucrose (5 ml per g of original tissue) with a teflon pestle.
The tubes are pre- incubated for 30 min on ice and then for 6 min at 37° C. in a water bath.
The incubation is continued for 15 s.
The amount of radioactivity on the filter disc is determined by liquid scintillation spectrometry.
Test substances are dissolved in 10 ml of 48% ethanol at a concentration of 0.44 mg/ml. Dilutions are made in 48% ethanol to give final concentrations of 0.1, 0.3, 1, 3 and 10 μg/ml. Experiments are performed in triplicate. Controls for depolarized and nondepolarized samples are included in the assay and test substances are only tested in depolarized samples.
The IC50 value is estimated from dose response curves.

Point of comparison: `CCCCCN1CC[C@@H](c2ccsc2)[C@H](COc2cccc(C(F)(F)F)c2)C1` (relative stereo) [Compound 31, (+-) trans 1-pentyl-4-(3-thienyl)-3-(3-trifluoromethylphenoxymethyl)piperidine, oxalate], “IC50 (concentration of test substance which inhibits 50% of stimulated uptake of 45Ca)” value 4.7 µg/mL. Against it:
- CCCCCN1CC[C@@H](c2ccsc2)[C@H](COc2ccc3c(c2)OCO3)C1 (relative stereo) [Compound 30, (+-) trans 3-(3,4-methylenedioxyphenoxymethyl)-1-pentyl-4-(3-thienyl)piperidine, HCl] — within 1.5-fold, 4.9 µg/mL
- CCCCCN1CC[C@@H](c2ccsc2)[C@H](COc2ccc(C#N)cc2)C1 (relative stereo) [Compound 39, (+-) trans 3-(4-cyanophenoxymethyl)-1-pentyl-4-(3-thienyl)piperidine, HCl] — 1.7-fold lower, 2.7 µg/mL
- CCCCCN1CC[C@@H](c2ccsc2)[C@H](COc2ccc(Cl)cc2)C1 (relative stereo) [Compound 37, (+-) trans 3-(4-chlorophenoxymethyl)-1-pentyl-4-(3-thienyl)piperidine, HCl] — within 1.5-fold, 3.6 µg/mL
- CCCCCN1CC[C@@H](c2cccs2)[C@H](COc2ccccc2C#N)C1 (relative stereo) [Compound 15, (+-) trans 3-(2-cyanophenoxymethyl)-1-pentyl-4-(2-thienyl)piperidine, HCl] — 1.5-fold higher, 7.2 µg/mL
- CCCCN1CC[C@@H](c2cccs2)[C@H](COc2ccccc2OC(C)C)C1 (relative stereo) [Compound 27, (+-) trans 1-butyl-3-(2-isopropoxyphenoxymethyl)-4-(2-thienyl)piperidine, oxalate] — 2.8-fold higher, 13 µg/mL
- CCCCN1CC[C@@H](c2ccc(C)o2)[C@H](COc2cccc(C(F)(F)F)c2)C1 (relative stereo) [Compound 12, HCl] — 3.8-fold higher, 18 µg/mL
- CCC(C)CN1CC[C@@H](c2ccsc2)[C@H](COc2cccc(C(F)(F)F)c2)C1 (relative stereo) [Compound 47, (+-) trans(2-methylbutyl)-4-(3-thienyl)-3-(3-trifluoromethylphenoxymethyl)piperidine, HCl] — within 1.5-fold, 5.8 µg/mL
- CCCCCN1CC[C@@H](c2ccsc2)[C@H](COc2ccc(OC(F)(F)F)cc2)C1 (relative stereo) [Compound 43, (+-) trans 3-(4-trifluoromethoxyphenoxymethyl)-1-pentyl-4-(3-thienyl)piperidine, HCl] — 2.1-fold higher, 10 µg/mL
- CCCCN1CC[C@@H](c2cccs2)[C@H](COc2cccc(OC)c2)C1 (relative stereo) [Compound 25, (+-) trans 1-butyl-4-(2-thienyl)-3-(3-methoxyphenoxymethyl)piperidine, HCl] — 1.9-fold higher, 9.1 µg/mL
- CCCCCN1CC[C@@H](c2cccs2)[C@H](COc2cccc(CN)c2)C1 (relative stereo) [Compound 28, (+-) trans 3-(3-aminomethylphenoxymethyl)-1-pentyl-4-(2-thienyl)piperidine,HCl] — 6.4-fold higher, 30 µg/mL
- FC(F)(F)c1cccc(OC[C@@H]2CNCC[C@H]2c2ccsc2)c1 (relative stereo) [Compound 44, (+-) trans 4-(thienyl)-3-(3-trifluoromethylphenoxymethyl)piperidine, HCl] — 1.7-fold lower, 2.8 µg/mL

System: peripheral calcium uptake, e.g. in blood vessels and the heart
Assay: not given
Settings: cited from earlier work

For `COc1ccc(CCN(C)CCCC(C#N)(c2ccc(OC)c(OC)c2)C(C)C)cc1OC` (stereo not drawn) [Verapamil], the “activity against peripheral calcium uptake” value is listed as “have activity”.
For `COc1ccc([C@@H]2Sc3ccccc3N(CCN(C)C)C(=O)[C@@H]2OC(C)=O)cc1` [Diltiazem], the “activity against peripheral calcium uptake” value is given as “have activity”.
For `COC(=O)C1=C(C)NC(C)=C(C(=O)OC)C1c1ccccc1[N+](=O)[O-]` [Nifedipine], the “activity against peripheral calcium uptake” value is given as “have activity”.
